Data published in patent US20230144898A1, “INHIBITOR OF ASPARTIC ACID SYNTHESIS IN TUMOR CELLS, INHIBITOR OF SPHEROID FORMATION OF TUMOR CELLS, INHIBITOR OF TUMOR CELL METASTASIS, ACTIVITY ENHANCER OF GLYCOLYTIC INHIBITOR, AND PHARMACEUTICAL COMPOSITION FOR SUPPRESSING AND/OR PREVENTING TUMOR METASTASIS” (CCI HOLDINGS INC., priority 2020, published 2023).

How the values were obtained:
[1] = tested on: mitochondria in B16F10 cells; experiment: Electron microscope observation of treated cells (Test Example 8); type: cell-based, mouse; details: neopetasin 3 µM, metformin 5000 µM
Procedure: Following the above results, the cells respectively treated with neopetasin (3 µM) and metformin (5000 µM) in the above were observed using an electron microscope. Furthermore, DMSO was administered to the negative control section, and the same experiment was performed.

B16F10 cells [2] = experiment: Influence on anticancer action of 2-DG, cell viability (Test Example 3); type: cell-based, mouse; details: neopetasin 0.3 µM or 3 µM with 2-DG, 36 hours
Procedure: Specifically, to start with, B16F10 cells were seeded in a six-well plate in an amount of 0.5×10^5 cells/mL. Next, after 24 hours starting from seeding, 2-DG (concentration changed from 3 mM to 3 nM) was added and simultaneously treated with neopetasin at a concentration of 0.3 µM or 3 µM. Then, after 36 hours starting from this treatment, the cell viability was measured through the same method as in Test Example 1. Moreover, as a negative control section, DMSO was administered to perform the same experiment.

A2058 cells [3] = experiment: KEGG Pathway analysis using microarray (Test Example 6); type: cell-based, human; details: 3 µM, 8 hours
Procedure: The signaling pathways affected by neopetasin treatment were examined by KEGG Pathway analysis using the microarray. Specifically, A2058 cells were seeded at 0.5×10^5 cells/mL in a six-well plate, and after 24 hours of seeding, neopetasin (final concentration: 3 µM) was suspended in a medium and incubated for 8 hours. A2058 cells thus treated with neopetasin (3 µM) for 8 hours were recovered with a cell scraper. Furthermore, DMSO was administered to the negative control section, and the same experiment was performed. Next, data was collected using SurePrint G3 Human CGH microarray 8x60K (Agilent, CA, USA) and the raw data obtained for each sample was normalized with 75 percentile values (global normalization). Then, using Gene Set Enrichment Analysis (GSEA, Broad Laboratory, Massachusetts Institute of Technology, MA, USA), pathways registered in KEGG, Reactome, and GO were searched.
In FIG. 7, the genes with increased expression are shown in red, the gene groups with decreased expression are shown in blue, and the gene groups with changes therebetween are shown in white. […] In addition, when the heat map was drawn, gene groups included in the variable pathways were extracted, and the log-transformed signal data was subjected to cluster analysis by Ward’s method using JMP version 12.2.0 (SAS Institute Inc.).

B16F10 cells [4] = experiment: Western blotting, temporal changes of AMPK, FAK, Akt, ERK1/2 (Test Example 11); type: cell-based, mouse; details: 3 µM; 3, 8, 24 and 56 hours
Procedure: Specifically, for B16F10 cells treated with neopetasin (3 µM) or metformin (5000 µM) through the same method as in Test Example 1, the cells were recovered at each of 3 hours, 8 hours, 24 hours, and 56 hours after the treatment with these compounds, and the contents of various proteins were measured by Western blotting through the same method as in Test Example 10. Furthermore, DMSO was administered to the negative control section, and the same experiment was performed.

[5] = tested on: mitochondria in B16F10 cells; experiment: MitoTracker Orange staining of mitochondria (Test Example 8); type: cell-based, mouse
Procedure: In order to determine the action mechanism of neopetasin on inhibiting the aspartic acid synthesis in tumor cells, the influence of neopetasin on mitochondria in B16F10 cells was evaluated. Specifically, B16F10 cells treated with neopetasin (3 µM) for 48 hours through the same method as in Test Example 1 were stained using MitoTracker Orange (Thermo Fisher Scientific, MA, USA), which labels mitochondria depending on membrane potential. In addition, as a positive control section, in place of neopetasin, metformin known as a mitochondrial respiratory chain Complex I inhibitor (mitochondrial toxin) was used at a concentration of 5000 µM to perform the same experiment. Subsequently, the cells stained as described above were photographed with a fluorescence microscope (FIG. 9A). In addition, the relationship between fluorescence intensity of the cells and the distribution of the number of cells was measured using an image cytometer (Tali, Thermo Fisher Scientific, MA, USA) (FIG. 9B).

A2058 cells [6] = experiment: Western blotting of cancer-related proteins, A2058 cells (Test Example 10); type: cell-based, human; details: 3 µM, 56 hours
B16F10 cells [7] = experiment: Lung metastasis of cells pre-treated in vitro, tail vein injection (Test Example 13); type: in vivo, mouse; details: cells reacted with 3 µM in vitro; two-week non-treatment period
Procedure: In this test example, neopetasin (NP) was previously reacted with B16F10 cells that are derived from the mouse melanoma at a concentration of 3 µM in vitro. Thereafter, the uniform numbers of living cells were injected into the tail vein of the mice, and thereafter, no treatment was performed, and the number of metastasis lesions formed in the lung after a two-week non-treatment period was counted. The protocol of the present test example is shown in FIG. 19, and the graph showing the results of the present test example and the observation photograph of the extracted lung are shown in FIG. 20. […] Here, if neopetasin (NP) were reducing the number of lung metastasis lesions as part of the proliferation inhibitory effect on tumor cells (in other words, lung metastasis is suppressed as part of the proliferation inhibitory effect), equivalent formation of metastasis lesions should be observed in both neopetasin (NP)-administered group and the control (DMSO-administered group) during the non-treatment period in which the proliferation inhibitory effect is not exerted. However, in reality, as described above, formation of a new metastatic lesion has not been confirmed even after the non-treatment period in neopetasin (NP)-administered group.

[8] = tested on: mouse-derived metastatic breast cancer cells Jyg-MC(B); experiment: Mouse natural metastasis model (Test Example 12); type: in vivo
Description: In general, the metastasis process follows the course of primary tumor formation, invasion of blood vessels and lymphatic vessels, and fixation and proliferation to lung. Here, the model prepared in Test Example 2 verifies only kinetics of tumor cells after entry into the blood vessel, and the metastasis phenomenon occurring in the actual clinical example also includes other processes in addition to invasion of blood vessels and lymphatic vessels from the primary tumor. Thereupon, in this test example, a subcutaneous tumor (a primary tumor) was generated in a mouse, and a model in which the tumor cells metastasized to lung following all metastasis processes (a natural metastasis model) was prepared.
Specifically, to start with, in order to prepare a natural metastasis model, a nude mouse (BALBc nu/nu, female, 4 weeks old, purchased from Japan SLC) was subcutaneously inoculated with mouse-derived metastatic breast cancer cells Jyg-MC(B). After 24 days of incubation, neopetasin (NP) was administered intraperitoneally at a dose of 50 mg/kg and treated a total of 6 times for 16 days (inoculation at 0, 2, 4, 6, 10, 14 days, respectively). Note that treatment procedure at this time is illustrated in FIG. 13.

[9] = 50 mg/kg intraperitoneally, 6 times for 16 days

C=C(C)[C@H]1C[C@@]2(C)C(=CC1=O)CC[C@@H](OC(=O)/C(C)=C\C)[C@@H]2C [Neopetasin, neopetasin]
influence on mitochondria (electron microscope) [1]: most mitochondria were vacuolated
anticancer action of 2-DG on addition of neopetasin (B16F10 cells [2]): enhanced in a concentration-dependent manner
changes in asparagine synthetase (ASNS) and cystathionine gamma-lyase (CTH) (A2058 cells [3]): particularly significant changes
expression of molecules involved in amino acid metabolism (A2058 cells [3]): greatly varies
AMPK change (B16F10 cells [4]): changes at the earliest stage (3 hours)
Akt and ERK (B16F10 cells [4]): inactivated
FAK (B16F10 cells [4]): inactivated
activity relative to metformin ([5]; neopetasin 3 µM vs metformin 5000 µM): ≥ 1000 times
MitoTracker Orange fluorescence intensity ([5]; neopetasin 3 µM, metformin 5000 µM, 48 hours): enhanced fluorescence intensity
expression of cancer-related molecules (A2058 cells [6]): inhibit a wide range of cancer-related molecules
formation of metastasis lesions in lung (B16F10 cells [7]): formation of metastasis lesions was not observed
lung metastasis lesions [8, 9]: significant decrease in lung metastasis lesions
lymph node metastasis (weight of the axillary lymph node) [8, 9]: exhibits an inhibitory effect on lymph node metastasis
degree and weight of lymph node swelling ([8]; excluding examples without lymph node swelling): decreased
